Test results from patent US20260373103A1, “COMPOSITIONS AND METHODS FOR PREVENTING CARDIOMYOPATHY” (OHIO STATE INNOVATION FOUNDATION, priority 2022, published 2026).
Entries after “also recorded” stand apart in the source; their conditions may differ.

Legend:
Mfn2^−/− MEF cells = assay: Mitochondrial morphology, confocal imaging; type: cell-based, mouse; details: 3 or 10 μg/ml ST-539, 24 h
Protocol: (§1) HeLa cells and mouse embryonic fibroblasts (MEFs) were grown in Dulbecco's minimum essential medium (DMEM) with 10% fetal bovine serum (FBS) supplemented with penicillin-streptomycin. HeLa Parkin, PINK1 KO cells, WT and MFN2 KO cells were previously described. Cells stably expressing USP30 were generated using lentiviral vectors of pLVX-Puro-Myc-USP30. The USP30 plasmid was obtained from Addgene. The plasmid was transferred into a lentiviral vector and viral particles were prepared by transiently transfecting HEK293T using standard methods. For the drug treatment experiments, cells were incubated in medium containing a mixture of 5 μM oligomycin and 5 μM antimycin A (A/O; see figures for treatment times). In 18 h treatment, A/O were used in combination with 10 μM quinolyl-valyl-O-methylaspartyl-[−2,6-difluorophenoxy]-methyl ketone (QVD), a broad-spectrum caspase inhibitor. ST51000539 (ST-539) was purchased from Tim Tec, Inc. Other chemicals were from Sigma-Aldrich (St. Louis, MO, USA). For FACS analysis, cells stably expressing mt-Keima were incubated in medium containing a mixture of […] antimycin A for 1.5 h. Prior to A/O treatment, cultures were treated with DMSO or ST-539 at 3 μg/ml. Cells were trypsinized, washed once with PBS buffer and then resuspended into 500 μl of PBS prior to analysis using a BD Fortessa flow cytometer as previously described.

wild type MEFs = assay: Mitochondrial morphology, confocal imaging; type: cell-based, mouse; details: ST-539 3 or 10 μg/ml, 24 h
Protocol: as §1

[1] = system: heart tissue of mt-Keima mice; assay: In vivo mitophagy in heart, mt-Keima mice; design: species or system mouse; details: 25 mg/kg/day i.p. for 5 days
Protocol: (§2) Fluorescent samples were examined with a Zeiss LSM 780 confocal microscope (Carl Zeiss MicroImaging). As previously described^2, fluorescence of mt-Keima was imaged in two channels via two sequential excitations (458 nm, green; 561 nm, red) and using a 570- to 695-nm emission range. Confocal experiments for parkin translocation were performed using a HeLa cell line stably expressing YFP-Parkin plated on 35 mm coverglass #1.5 chamber dishes (MatTek). These cells were treated for 2 h with DMSO as vehicle control or with A/O. YFP was imaged with a 514-nm excitation and 520- to 570-emission filters. Representative confocal images were processed using Imaris software by contrast linear stretch only. Calculation of mitophagy based on mt-Keima signal was performed using Zeiss ZEN software as previously described^2. The average of four images from each tissue sample was taken, and the values were normalized to the average value seen in the controls, assigned the value of one.
(§3) The mt-Keima mouse. […] The mice were lightly anesthetized with isoflurane and the ejection fraction, fractional shortening, and ventricular chamber dimensions were determined using 2-D-guided M mode images. Ejection fraction, fractional shortening, ventricular chamber dimensions, and left ventricular mass were calculated automatically using the VevoLAB program. […]

[2] = system: liver tissue of mt-Keima mice; assay: In vivo mitophagy in liver, mt-Keima mice; design: species or system mouse; details: 25 mg/kg/day i.p. for 5 days
Protocol: as §2, §3

LC3-II/LC3-I = assay: LC3 I/II immunoblotting of heart tissue; type: in vivo, mice; details: 25 mg/kg/day i.p. for 5 days
Protocol: Cells were lysed in RIPA buffer (50 mM Tris-HCl, at pH 8.0; 150 mM NaCl; 1% (vol/vol) Nonidet P-40; 0.5% sodium deoxycholate, 0.1% SDS and protease inhibitor cocktail (Roche)) on ice. Primary antibodies were used at the following concentrations: USP30 (Santa Cruz, sc-515235, 1:200); TOM20 (Cell Signaling Technology, 42406S, 1:1000); TOM40 (Proteintech, 18409-1-AP, 1:1000); NDP52 (Cell Signaling Technology, 60732S, 1:1000); TIM23 (Proteintech, 11123-1-AP, 1:500); LC3A/B (Cell Signaling Technology, 4108S, 1:1000); GAPDH (Cell Signaling Technology, 5175S, 1:1000); PINK1 (Cell Signaling Technology, 6946S, 1:1000); ACTIN (Cell Signaling Technology, 3700S, 1:1000). The membranes were incubated with anti-rabbit (LI-COR, 926-32211, 1:15000) or anti-mouse (LI-COR, 926-68072, 1:15000) IgG secondary antibodies for 1 h at room temperature. Images were captured using the Odyssey system (LI-Cor). One representative blot is shown of three independent experiments.
as §3

mt-Keima mice = assay: Echocardiographic analysis; type: in vivo, mouse; details: 25 mg/kg/day i.p. for 5 days, vs vehicle
Protocol: The mt-Keima mouse. ST-539 was dissolved into 1% DMSO in Sesame oil and injected intraperitoneally (i.p.) at doses of 25 mg/kg/day with five total doses. Both male and female mice were used in this study. The control group received vehicle only. Echocardiographic measurements were taken using a Vevo3100 Visual Sonics (Visual Sonics) system. The mice were lightly anesthetized with isoflurane and the ejection fraction, fractional shortening, and ventricular chamber dimensions were determined using 2-D-guided M mode images. Ejection fraction, fractional shortening, ventricular chamber dimensions, and left ventricular mass were calculated automatically using the VevoLAB program. All experiments involving animals were approved by the Institutional Animal Care and Use Committee at The Ohio State University.

[3] = system: Human induced pluripotent stem cell-derived cardiomyocytes; assay: Doxorubicin-induced cell death in hiPSC-CMs; type: cell-based; details: 48 hours, doxorubicin+ST-539
Jurkat T cells = assay: Doxorubicin-induced apoptosis / cell viability, Resazurin assay; type: cell-based; details: 48 hours, ST-539 and doxorubicin
USP30 = details: in vitro; compound and similar structures; cited from earlier work

SMILES: CC(C)(C)NS(=O)(=O)c1cccc2c(NC(=O)C(Cc3ccccc3)NC(=O)c3ccccc3)cccc12 (stereo not drawn) [ST-539]
- elongation of mitochondria (Mfn2^−/− MEF cells): did not induce the elongation of mitochondria significantly
- mitochondrial morphology (wild type MEFs): failed to change the mitochondrial morphology
- cardiac mitophagy (red mt-Keima signal in heart tissue) [1]: marked induction of the red signal in the heart tissue; also recorded: efficiently induces cardiac mitophagy
- hepatic mitophagy [2]: remains unchanged; also recorded: inability of ST-539 to induce hepatic mitophagy
- LC3-II/LC3-I ratio in heart (LC3-II/LC3-I): increase in LC3-II/LC3-I ratio
- LC3-II level in heart (LC3-II/LC3-I; *p<0.05): increased levels of LC3-II
- cardiac output (mt-Keima mice): similar; also recorded: does not appear to impact cardiac output
- ejection fraction (EF) (mt-Keima mice): similar; also recorded: minimal differences
- left ventricular posterior wall thickness (LVPWs) (mt-Keima mice): similar; also recorded: does not appear to impact
- doxorubicin-induced cell death (percent survival of hiPSC-CMs) [3]: reduces doxorubicin-induced cell death
- doxorubicin-induced apoptosis in leukemia (percent cell viability) (Jurkat T cells): potentiates doxorubicin-induced apoptosis in leukemia
- USP30 enzyme function inhibition (USP30): selectively inhibit USP30 enzyme function in vitro
